Counter-ions that a name gives are not always drawn.
Columns and labels:
NaV1.7 [1] = target: T1, NaV1.7 (Homo sapiens, UniProt Q15858); test: Automated patch clamp (Qube 384), internal block of NaV1.7; assay type: cell-based; conditions: IC50, compound in internal solution, HEK293 cells, read-out: Nav1.7 Intracellular Inhibition
T1 construct: expressed in transfected cells; host or cells: HEK293 (tetracycline-inducible)
Procedure: (§1) NaV1.7 was expressed in HEK293 cells upon induction with tetracycline. Cells were cultured in DMEM containing 10% dialyzed Fetal Bovine Serum (VWR, Radnor, Pa.), 1% Glutamax (VWR, Radnor, Pa.), 1% Penicillin-Streptomycin (VWR, Radnor, Pa.), 100 mg/L Hygromycin (Thermo Fisher Scientific, Waltham, Mass. and 5 mg/L Blasticidin (Alfa Aesar, Haverhill, Mass.). Cells were grown and maintained at 37° C. in a humidified environment containing 10% CO2 in air. Cells were detached from the culture flask for passage and harvested using 0.05% Trypsin-EDTA (Thermo Fisher Scientific, Waltham, Mass.). To induce NaV1.7, cells were induced with tetracycline (0.1-1 μg/mL, IBI Scientific, Peosta, Iowa) the day before recording.
Before experiments, cells were washed with DPBS (VWR, Radnor, Pa.), digested with Detachin (VWR Radnor, Pa.) and then triturated 10 times in CHO Serum-Free Media (VWR Radnor, Pa.) to resuspend the cells and to break apart cell aggregates. Cells were counted and the final concentration was set at 2-5 million cells per mL.
The intracellular solution contained the following: 140 mM CsF, 1 mM/5 mM EGTA/CsOH, 10 mM HEPES, 10 mM NaCl, adjusted to pH 7.3 with CsOH, and osmolality to 320 with OSM solution. The external solution contained the following: 145 mM NaCl, 4 mM KCl, 1 mM MgCl2, 2 mM CaCl2), 10 mM HEPES, 10 mM Glucose, adjusted to pH 7.4 with CsOH and osmolality to 305 with OSM solution. The OSM solution was a normal Ringer solution containing (in mM) NaCl 155, HEPES 10, sucrose, KCl 3.5, CaCl2) 1.5, MgCl2 1 adjusted to pH 7.4 with NaOH. All chemicals are from Sigma-Aldrich, St. Louis, Mo. In order to test the degree of internal block by test compounds, the compounds were dissolved in internal solution at the indicated test concentration. […] In order to test the degree of external block by test compounds the compounds were dissolved in external solution at the indicated test concentration.
Automated Patch Clamps were performed on Qube 384 (Sophion Bioscience, Woburn Mass.) with multihole Qchips at a temperature setting of 22 degrees. The whole cells configuration was formed with default Qube seal and break-in parameter. The membrane potential was held at −100 mV before the voltage protocol began. Two voltage protocols were followed.
Step 1: Cells were held at −100 mV with a depolarized pulse to −20 mV for 10 ms, the interval was set at 5 s. Currents were corrected by default leak subtraction from every pulse. The duration was set at 5 mins.
Step 2: Cells were held at −100 mV with a depolarized pulse to −20 mV for 10 ms. The frequency was 5 Hz. Currents were corrected by leak subtraction calculated before step 2. The duration was set at 4 mins.
After Step 2, the Qchip was removed from the recording chamber. The internal solution was changed with solutions containing test compounds. Qchips were held at −100 mV without pulsing after being replaced in the recording chamber. The total solution switching time was 8 minutes. After the internal solution exchange, Cells were recorded and step 2 for repeated for 10 minutes.
Data analysis was performed by Sophion Analyzer. Cells were filtered with minimum 50 MOhm seal resistance and minimum 5 nA starting current. The rundown of the currents was corrected with control cells (Non-Drug). The remaining was calculated by averaging last 3 points in the end of experiments. The base line was calculated as the average of last 3 points of Step 2.
IC50 curves were plotted with DR-plots/Hill function (a dose-response plot with a Hill fit).
Representative examples of the invention were tested for intracellular inhibition of NaV 1.7 in the automated patch clamp assay. Activity Range is reported as IC50: “++++” (<0.3 μM), “+++” (0.3-1 μM), “++” (1-3 μM) or “+” (3-10 μM).

[2] = PAMPA membrane permeability assay; assay type: in vitro ADME; conditions: permeability coefficient, pH 7.4 buffer, GIT lipid, 4 hours incubation
Procedure: The PAMPA assay (pION, Inc., Woburn Mass.) was used to determine the ability of compounds of the invention to cross an artificial lipid membrane by passive diffusion. Test compounds were dissolved in DMSO (10 mM) and diluted 200-fold in buffer (pION Inc., pH 7.4) to provide 50 uM stock solutions. Buffer (150 μL) was added to a UV blank plate and stock solutions (150 μL) were transferred to a UV reference plate. The blank and reference spectrum were read using a spectrophotometer. Stock solutions (200 μL) were added to the donor plate of the PAMPA sandwich plate and an accept plate painted with GIT lipid (pION Inc, 5) was placed on top. Buffer (200 μL) was added to the acceptor plate and the PAMPA sandwich plate was incubated for 4 hours. Aliquots (150 μL) from the acceptor plate were added to a UV plate and read as acceptor spectrum. Aliquots (150 μL) of the donor solutions were added to a UV analysis plate and read as donor spectrum. The permeability coefficient of test compounds was calculated using PAMPA Explorer™ software (version 3.5.0.4) based on the AUC of the reference plate, the donor plate, and the acceptor plate.
The PAMPA permeability results (10^−6 cm/s) of representative compounds are reported as “+” (<0.1 10^−6 cm/s), “++” (0.1-2.0 10^−6 cm/s), “+++” (2.0-10.010^−6 cm/s) or “++++” (>10.0 10^−6 cm/s).

NaV1.7 [3] = target: T1, NaV1.7; test: Manual patch clamp, internal block of NaV1.7 current; assay type: cell-based; conditions: compound in internal solution, HEK293 cells, read-out: Nav1.7 Intracellular Inhibition; for inhibition at 10 µM: % inhibition at 10 μM test concentration; for inhibition at 3 µM: % inhibition at 3 μM test concentration
Procedure: Representative compounds of the invention were synthesized according to the described methods and tested for the ability to inhibit voltage-gated sodium channels.
as §1, with “recording and plated onto 24-well plates. Cells were washed with DPBS (VWR, Radnor, Pa.), trypsinized and then triturated five times in 10 mL of growth media to break apart cell aggregates. For one 24-well plate, 2 mL of cell suspension was mixed with 23 mL of fresh growth media and 0.1-1 μg/mL tetracycline added. 1 ml of mixed media with cells was then added to each well of a 24-well plate, with a 12 mm coverslip already placed in the bottom of the well. Cells were then incubated in 37° C. and 10% CO2 overnight.” for “recording.”
The intracellular solution contained the following (in mM) CsCl 135, NaCl 10, EGTA 10, HEPES 10, MgCl2 2, adjusted to pH 7.2 with CsOH. The external solution was a normal Ringer solution containing (in mM) NaCl 155, HEPES 10, glucose 10, KCl 3.5, CaCl2 1.5, MgCl2 1 adjusted to pH 7.4 with NaOH. CsCl is from Alfa Aesar, Haverhill, Mass. All other chemicals are from Sigma-Aldrich, St. Louis, Mo. In order to test the degree of internal block by test compounds the compounds were dissolved in internal solution at the indicated test concentration. […] In order to test the degree of external block by test compounds the compounds were dissolved in external solution at the indicated test concentration.
18-24 hours after cells were induced with tetracycline, coverslips were placed into a chamber filled with Normal Ringer solution at room temperature and the chamber placed on a microscope. Pipettes were pulled from borosilicate glass on a P97 puller (Sutter Instrument, Novato, Calif.) and polished with a MF-830 Microforge (Narishige International USA, Inc., Amityville, N.Y.) to have a resistance of 1.5-2.5 MΩ when filled with CsCl internal solution at room temperature. Healthy cells (those that are round and translucent with no visible blemishes) were chosen for seal formation. A seal was formed between the pipette and the cell, and a brief pulse of suction was used to “break in” and establish the whole-cell configuration. The membrane potential was held at −100 mV before the voltage protocol began. Only cells with series resistance between 1.5-5 MΩ were retained for analysis. The voltage protocol was as follows: Cells were held at −100 mV for 12 ms followed by a hyperpolarizing step to −105 mV for 12 ms to monitor the leak. Cells were then stepped back to −100 mV for 40 ms. Cells were then depolarized to −20 mV for 10 ms and then returned to −100 mV for 26 ms.
Once the recording was started, the voltage protocol was run at 30 second intervals for 5 minutes to get a stable baseline. This was followed by four 30-second periods of 5 Hz stimulation of the same voltage protocol separated by 1 minute of rest which was then followed by 0.33 Hz stimulation after the last train. Currents were recorded using PatchMaster software with Heka EPC10 (HEKA Electronics, Lambrecht, Germany). Only cells with inward current amplitudes at −20 mV between 400 pA and 4 nA were accepted. In addition, cells having leak currents greater than 10% of their current amplitudes were discarded. […]

T1 sequence (Q15858 whole entry): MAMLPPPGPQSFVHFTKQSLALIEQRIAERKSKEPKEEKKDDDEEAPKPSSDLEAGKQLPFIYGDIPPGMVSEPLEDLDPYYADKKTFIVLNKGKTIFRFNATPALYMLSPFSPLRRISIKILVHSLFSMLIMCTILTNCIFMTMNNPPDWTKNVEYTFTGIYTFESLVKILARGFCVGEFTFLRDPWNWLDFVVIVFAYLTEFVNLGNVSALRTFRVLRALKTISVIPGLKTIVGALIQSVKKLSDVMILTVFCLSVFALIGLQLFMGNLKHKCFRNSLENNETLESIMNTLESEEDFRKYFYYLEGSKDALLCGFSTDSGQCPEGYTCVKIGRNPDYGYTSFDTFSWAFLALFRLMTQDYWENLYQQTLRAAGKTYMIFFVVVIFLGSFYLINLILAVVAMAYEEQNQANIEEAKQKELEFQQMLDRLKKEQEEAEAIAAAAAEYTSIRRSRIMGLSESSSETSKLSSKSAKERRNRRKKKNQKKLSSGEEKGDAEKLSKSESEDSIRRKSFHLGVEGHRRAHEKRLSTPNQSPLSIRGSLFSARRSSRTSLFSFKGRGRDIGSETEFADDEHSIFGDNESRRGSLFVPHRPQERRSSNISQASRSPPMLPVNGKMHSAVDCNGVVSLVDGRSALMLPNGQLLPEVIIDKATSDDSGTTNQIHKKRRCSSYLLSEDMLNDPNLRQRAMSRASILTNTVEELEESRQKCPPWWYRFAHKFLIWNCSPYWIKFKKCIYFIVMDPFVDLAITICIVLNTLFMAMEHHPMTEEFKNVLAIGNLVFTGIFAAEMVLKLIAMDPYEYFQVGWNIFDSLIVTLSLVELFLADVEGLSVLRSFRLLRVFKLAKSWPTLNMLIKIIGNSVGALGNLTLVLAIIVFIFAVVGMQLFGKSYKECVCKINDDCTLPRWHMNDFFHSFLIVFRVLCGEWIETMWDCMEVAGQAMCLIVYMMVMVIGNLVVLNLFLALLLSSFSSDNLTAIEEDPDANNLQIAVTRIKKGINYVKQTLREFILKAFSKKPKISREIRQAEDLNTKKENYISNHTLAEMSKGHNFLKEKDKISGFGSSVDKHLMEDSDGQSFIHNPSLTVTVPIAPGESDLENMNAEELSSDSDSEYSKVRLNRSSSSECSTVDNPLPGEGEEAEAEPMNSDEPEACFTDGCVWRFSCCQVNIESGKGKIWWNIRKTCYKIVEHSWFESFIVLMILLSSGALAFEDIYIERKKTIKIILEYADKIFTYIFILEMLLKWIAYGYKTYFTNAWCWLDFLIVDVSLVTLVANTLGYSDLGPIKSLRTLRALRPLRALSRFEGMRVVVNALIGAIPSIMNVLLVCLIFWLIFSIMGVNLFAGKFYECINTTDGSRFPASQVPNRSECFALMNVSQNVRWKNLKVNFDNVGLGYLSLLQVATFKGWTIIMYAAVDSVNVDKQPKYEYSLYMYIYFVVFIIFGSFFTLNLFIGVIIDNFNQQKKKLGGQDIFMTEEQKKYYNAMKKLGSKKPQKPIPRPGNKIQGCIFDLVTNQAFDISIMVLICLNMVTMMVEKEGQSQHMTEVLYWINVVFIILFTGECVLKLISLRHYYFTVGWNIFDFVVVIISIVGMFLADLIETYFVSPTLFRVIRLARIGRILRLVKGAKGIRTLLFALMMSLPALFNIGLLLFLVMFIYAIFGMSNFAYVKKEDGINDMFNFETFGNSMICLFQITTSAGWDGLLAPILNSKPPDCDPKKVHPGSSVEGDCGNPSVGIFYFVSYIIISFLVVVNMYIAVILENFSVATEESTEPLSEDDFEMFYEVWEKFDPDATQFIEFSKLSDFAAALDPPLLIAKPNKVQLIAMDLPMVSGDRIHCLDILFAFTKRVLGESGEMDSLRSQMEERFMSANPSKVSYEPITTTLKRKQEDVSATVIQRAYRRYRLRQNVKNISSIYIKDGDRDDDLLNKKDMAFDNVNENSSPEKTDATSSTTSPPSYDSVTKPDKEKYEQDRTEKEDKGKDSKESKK

Row | IC50 (NaV1.7 [1]) | PAMPA (10^−6 cm/s) [2] | inhibition at 10 µM (NaV1.7 [3]) | inhibition at 3 µM (NaV1.7 [3]) | Compound
1 | 3000 to 10000 nM | + (“+” (<0.1 10^−6 cm/s)) | – | – | Cc1cccc(C)c1NCC[N+]1(Cc2ccccc2)CCCCCC1 [Compound 84A, 1-benzyl-1-(2-((2,6-dimethylphenyl)amino)ethyl) azepan-1-ium trifluoroacetate]
2 | 1000 to 3000 nM | + (“+” (<0.1 10^−6 cm/s)) | – | – | Cc1cccc(C)c1NC(=O)C[N+]1(Cc2ccccc2)CCCC(C(=O)NC2CCCC2)C1.[Br-] (stereo not drawn) [Compound 60A]
3 | 300 to 1000 nM | – | – | – | CCC(C(=O)Nc1c(C)cccc1C)[N+]1(Cc2cccc(Cl)c2)CCCCC1 (stereo not drawn) [Compound 11]
4 | < 300 nM | – | – | – | CCC(C(=O)Nc1c(C)cccc1C)[N+]1(Cc2ccccc2)CCCCCC1 (stereo not drawn) [Compound 30]
5 | 1000 to 3000 nM | – | – | – | CCc1cccc(C[N+]2(C(CC)C(=O)Nc3c(C)cccc3C)CCCCC2)c1 (stereo not drawn) [Compound 20]
6 | 300 to 1000 nM | – | – | – | CCC(C(=O)Nc1c(C)cccc1C)[N+]1(Cc2cccc(OC)c2)CCCCC1 (stereo not drawn) [Compound 23]
7 | 300 to 1000 nM | – | – | – | CCC(C(=O)Nc1c(C)cccc1C)[N+]1(Cc2cccc(C#N)c2)CCCCC1 (stereo not drawn) [Compound 14]
8 | 1000 to 3000 nM | + (“+” (<0.1 10^−6 cm/s)) | – | – | Cc1cccc(C)c1NC(=O)C[N+]1(Cc2ccccc2)CCCC(C(=O)OCC(C)C)C1.[Br-] (stereo not drawn) [Compound 48A]
9 | < 300 nM | – | – | – | CCC(C(=O)Nc1c(C)cccc1C)[N+]1(Cc2cccc(O)c2)CCCCC1 (stereo not drawn) [Compound 29]
10 | 300 to 1000 nM | – | – | – | Cc1cccc(C)c1NC(=O)C[N+]1(Cc2ccccc2)CCCCCC1 [Compound 3]
11 | 1000 to 3000 nM | – | – | – | CCCN(CCC)C(=O)C1CCC[N+](CC(=O)Nc2c(C)cccc2C)(Cc2ccccc2)C1 (stereo not drawn) [Compound 67A]
12 | – | + (“+” (<0.1 10^−6 cm/s)) | > 95% | – | CCC(C(=O)Nc1c(C)cccc1C)[N+]1(Cc2cccc(C)c2)CCCCC1 (stereo not drawn) [Compound 17A]
13 | 300 to 1000 nM | – | – | > 90% | Cc1cccc(C(F)(F)F)c1NC(=O)C[N+]1(Cc2ccccc2)CCCCCC1 [Compound 73A]
14 | – | + (“+” (<0.1 10^−6 cm/s)) | > 95% | – | CCC(C(=O)Nc1c(C)cccc1C)[N+]1(Cc2ccc(C)cc2)CCCCC1 (stereo not drawn) [Compound 16A]
15 | – | + (“+” (<0.1 10^−6 cm/s)) | 70 to 95% | – | CCC(C(=O)Nc1c(C)cccc1C)[N+]1(Cc2cccc(OC)c2)CCCCC1 (stereo not drawn) [Compound 23A, 1-(1-((2,6-dimethylphenyl)amino)-1-oxobutan-2-yl)-1-(3-methoxybenzyl) piperidin-1-ium bromide]
16 | – | + (“+” (<0.1 10^−6 cm/s)) | 70 to 95% | – | CCC(C(=O)Nc1c(C)cccc1C)[N+]1(Cc2ccc(Cl)cc2)CCCCC1 (stereo not drawn) [Compound 10A]
17 | – | + (“+” (<0.1 10^−6 cm/s)) | 40 to 70% | – | Cc1cccc(C)c1NC(=O)C[N+](C)(C)Cc1ccccc1 [Compound 2A, N-benzyl-2-((2,6-dimethylphenyl)amino)-N,N-dimethyl-2-oxoethan-1-aminium bromide]
18 | 1000 to 3000 nM | – | > 95% | > 90% | Cc1cccc(C)c1OCC[N+]1(Cc2ccccc2)CCCCCC1 [Compound 85A, 1-benzyl-1-(2-(2,6-dimethylphenoxy)ethyl) azepan-1-ium bromide]
19 | – | + (“+” (<0.1 10^−6 cm/s)) | 70 to 95% | – | CCC(C(=O)Nc1c(C)cccc1C)[N+]1(Cc2cccc(F)c2)CCCCC1 (stereo not drawn) [Compound 8A]
20 | – | + (“+” (<0.1 10^−6 cm/s)) | 70 to 95% | – | CCC(C(=O)Nc1c(C)cccc1C)[N+]1(Cc2ccsc2)CCCCC1 (stereo not drawn) [Compound 26A]

Reference: patent US11603355B2, “Charged ion channel blockers and methods for use” (Nocion Therapeutics, Inc., priority 2019, dated 2023)
